Values quoted from earlier work in patent US20230021879A1, “SYNTHESIS OF 3 -RNA OLIGONUCLEOTIDES” (ALNYLAM PHARMACEUTICALS, INC., priority 2019, published 2023).

Target: P-glycoprotein 1 (P-gp) (Homo sapiens, UniProt P08183)
Settings: earlier studies

Chain of P-glycoprotein 1 (P-gp) (P08183 whole entry, species assumed): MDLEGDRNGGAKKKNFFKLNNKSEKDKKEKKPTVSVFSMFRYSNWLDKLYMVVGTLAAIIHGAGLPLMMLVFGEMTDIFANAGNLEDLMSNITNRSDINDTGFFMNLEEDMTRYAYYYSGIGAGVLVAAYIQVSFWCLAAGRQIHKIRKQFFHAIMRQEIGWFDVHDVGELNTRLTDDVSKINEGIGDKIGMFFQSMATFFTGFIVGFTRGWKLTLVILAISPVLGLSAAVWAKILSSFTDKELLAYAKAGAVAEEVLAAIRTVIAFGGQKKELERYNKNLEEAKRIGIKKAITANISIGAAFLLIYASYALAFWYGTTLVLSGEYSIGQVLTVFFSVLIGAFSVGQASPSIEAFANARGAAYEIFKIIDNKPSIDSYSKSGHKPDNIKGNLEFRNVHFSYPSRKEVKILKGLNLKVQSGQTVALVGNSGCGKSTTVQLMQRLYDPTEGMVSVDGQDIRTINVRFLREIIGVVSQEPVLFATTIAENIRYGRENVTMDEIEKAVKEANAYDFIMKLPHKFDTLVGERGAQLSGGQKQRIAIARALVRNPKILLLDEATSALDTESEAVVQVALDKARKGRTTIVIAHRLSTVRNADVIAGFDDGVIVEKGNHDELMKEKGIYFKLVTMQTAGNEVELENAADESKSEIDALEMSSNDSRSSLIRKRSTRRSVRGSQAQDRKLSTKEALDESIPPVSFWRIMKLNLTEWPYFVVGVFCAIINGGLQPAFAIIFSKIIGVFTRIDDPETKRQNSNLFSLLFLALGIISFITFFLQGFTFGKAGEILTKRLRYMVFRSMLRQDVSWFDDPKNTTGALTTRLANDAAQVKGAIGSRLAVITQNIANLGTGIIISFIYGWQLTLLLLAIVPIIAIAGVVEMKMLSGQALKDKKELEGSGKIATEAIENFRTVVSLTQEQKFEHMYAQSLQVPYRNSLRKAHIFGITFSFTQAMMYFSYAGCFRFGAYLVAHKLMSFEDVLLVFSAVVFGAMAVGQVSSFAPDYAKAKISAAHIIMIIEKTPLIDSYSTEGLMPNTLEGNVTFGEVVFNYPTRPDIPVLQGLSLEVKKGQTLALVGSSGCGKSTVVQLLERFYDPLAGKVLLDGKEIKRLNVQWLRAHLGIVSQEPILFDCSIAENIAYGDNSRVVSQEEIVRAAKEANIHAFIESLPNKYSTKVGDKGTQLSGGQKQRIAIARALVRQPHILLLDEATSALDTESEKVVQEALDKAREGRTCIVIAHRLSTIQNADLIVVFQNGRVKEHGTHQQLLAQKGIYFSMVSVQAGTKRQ

Q: Which P-gp substrate status does the source give for C[C@@H]1O[C@@H](O[C@H]2C[C@](O)(C(=O)CO)Cc3c(O)c4c(c(O)c32)C(=O)c2ccccc2C4=O)[C@H](I)[C@H](O)[C@H]1O [Annamycin, (7S,9S)-7-(((2R,3R,4R,5R,6S)-4,5-dihydroxy-3-iodo-6-methyltetrahydro-2H-pyran-2-yl)oxy)-6,9,11-trihydroxy-9-(2-hydroxyacetyl)-7,8,9,10-tetrahydrotetracene-5,12-dione] here?
A: poor substrate
